Data from US12539292B2, “BRM targeting compounds and associated methods of use” (Arvinas Operations, Inc., priority 2018, dated 2026).
Like-named read-outs stand apart in the source and are kept apart here.

Target: T1, BRM (Homo sapiens, UniProt P51531)
T1 construct: In-Cell Western Screen of BRM Degradation in SW1573 Cells; endogenous in cells; host or cells: SW1573
Assay: In-cell Western screen of BRM degradation in SW1573 cells (Dmax and DC50)
Assay type: cell-based
Settings: for Dmax: read-out: **Dmax (%) (% degraded)
Procedure: In-Cell Western Screen of BRM Degradation in SW1573 Cells
To assess BRM degradation (Dmax and DC50), cells were seeded at 8000/well in 96-well black/clear-bottom plates in 180 μL DMEM growth media (containing 1% pen-strep, 1% HEPES and 10% FBS) per well. Plates were incubated overnight to allow adhesion. The next morning cells were treated by adding 20 μL of 10× compound (1% DMSO) to appropriate wells and returned to incubator for overnight (18-20 hours). The final DMSO concentration was 0.1%.
For processing, the plates were removed from incubator, the media was removed, and immediately 200 μL of cold (4° C.) DPBS was added to all wells. DPBS was then removed, and 50 μL of 4% paraformaldehyde (PFA) in DPBS (4° C.) was added to all wells, and the plates were incubated at room temperature for 20 minutes. PFA was then removed, and 200 μL of TBS-T containing 0.5% Triton X-100 was added to all wells, and the plates were incubated at room temperature for 30 minutes. TBS-T containing 0.5% Triton X-100 was then removed, and 50 μL of Li-Cor blocking solution was added, and the plates were incubated at room temperature for a minimum of one hour.
The next day plates were washed three times with TBS-T, 200 μL per well. Fifty (50) μL of secondary antibody cocktail in LI-COR blocking solution (anti-rabbit_800 nm and anti-mouse_680 nm) was added to all wells (diluted 1:5000). The plates were incubated at room temperature for at least one hour while protected from light. The plates were washed twice with TBS-T, 200 μL per well.
To read each plate TBS-T was removed, and each plate was inverted tapped on a paper towel. The plates were read on the LI-COR Odyssey with default intensity settings of 5.0 for both channels. LI-COR images were analyzed with the in-cell Western feature of Image Studio Lite.

[1] = degradation of BRM, read-out: BRM DC50
[2] = BRM degradation, SW1573 cells, Table 2D, read-out: *DC50
[3] = BRM degradation, SW1573 cells, Table 2D

T1 sequence (P51531 whole entry): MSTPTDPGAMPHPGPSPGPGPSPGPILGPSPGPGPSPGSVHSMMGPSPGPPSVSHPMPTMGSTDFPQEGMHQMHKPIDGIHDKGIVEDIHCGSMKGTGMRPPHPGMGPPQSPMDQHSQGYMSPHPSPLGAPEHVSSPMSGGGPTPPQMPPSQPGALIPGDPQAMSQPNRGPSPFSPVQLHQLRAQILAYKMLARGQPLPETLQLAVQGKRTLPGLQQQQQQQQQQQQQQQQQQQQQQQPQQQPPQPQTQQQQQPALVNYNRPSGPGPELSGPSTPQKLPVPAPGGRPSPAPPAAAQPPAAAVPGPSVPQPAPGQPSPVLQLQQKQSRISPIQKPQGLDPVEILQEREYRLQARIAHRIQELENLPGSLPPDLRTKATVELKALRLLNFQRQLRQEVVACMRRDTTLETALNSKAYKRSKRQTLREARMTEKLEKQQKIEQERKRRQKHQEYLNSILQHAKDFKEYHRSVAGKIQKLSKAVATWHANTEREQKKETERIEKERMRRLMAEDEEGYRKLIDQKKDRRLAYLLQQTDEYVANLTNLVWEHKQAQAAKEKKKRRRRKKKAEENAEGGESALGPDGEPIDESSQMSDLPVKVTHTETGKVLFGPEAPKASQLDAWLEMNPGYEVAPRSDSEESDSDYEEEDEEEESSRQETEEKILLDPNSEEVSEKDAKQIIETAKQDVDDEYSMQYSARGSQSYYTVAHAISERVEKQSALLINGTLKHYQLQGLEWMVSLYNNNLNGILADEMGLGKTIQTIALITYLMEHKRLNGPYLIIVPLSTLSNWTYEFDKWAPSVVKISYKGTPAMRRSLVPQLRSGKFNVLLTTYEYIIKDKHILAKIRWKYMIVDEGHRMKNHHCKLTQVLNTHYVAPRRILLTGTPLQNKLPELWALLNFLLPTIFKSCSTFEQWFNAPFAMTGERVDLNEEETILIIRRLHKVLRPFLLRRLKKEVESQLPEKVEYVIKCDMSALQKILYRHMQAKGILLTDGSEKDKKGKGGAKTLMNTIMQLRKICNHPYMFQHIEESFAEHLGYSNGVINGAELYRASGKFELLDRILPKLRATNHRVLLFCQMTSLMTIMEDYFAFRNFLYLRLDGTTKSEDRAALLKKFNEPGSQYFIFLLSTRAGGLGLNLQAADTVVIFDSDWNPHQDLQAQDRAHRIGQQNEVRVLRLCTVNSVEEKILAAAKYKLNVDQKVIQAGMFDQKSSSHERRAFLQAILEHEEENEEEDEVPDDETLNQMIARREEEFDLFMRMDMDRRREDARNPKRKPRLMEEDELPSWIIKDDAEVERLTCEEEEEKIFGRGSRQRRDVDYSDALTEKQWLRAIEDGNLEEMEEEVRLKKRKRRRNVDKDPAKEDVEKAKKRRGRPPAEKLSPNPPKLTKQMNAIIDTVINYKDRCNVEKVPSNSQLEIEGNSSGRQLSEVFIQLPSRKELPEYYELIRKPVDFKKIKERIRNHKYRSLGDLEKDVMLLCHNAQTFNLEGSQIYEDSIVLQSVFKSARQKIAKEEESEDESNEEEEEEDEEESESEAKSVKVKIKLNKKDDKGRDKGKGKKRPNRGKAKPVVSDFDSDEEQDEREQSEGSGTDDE

| DC50 [1] [nM] | Compound | DC50 [2] [nM] | Dmax [3] [%] |
| --- | --- | --- | --- |
| > 30 | Cc1ncsc1-c1ccc([C@@H](C)NC(=O)[C@H]2C[C@H](O)CN2C(=O)[C@H](c2cc(OCCN3CCC(O)(CN4CC(Oc5cc(N6C7CCC6CN(c6cc(-c8ccccc8O)nnc6N)C7)ccn5)C4)CC3)no2)C(C)C)cc1 (mixture of isomers) [compound 446, rac-(2R,4S)-1-((2S)-2-(3-(2-(4-((3-((4-(3-(3-amino-6-(2-hydroxyphenyl)pyridazin-4-yl)-3,8-diazabicyclo[3.2.1]octan-8-yl)pyridin-2-yl)oxy)azetidin-1-yl)methyl)-4-hydroxypiperidin-1-yl)ethoxy)isoxazol-5-yl)-3-methylbutanoyl)-4-hydroxy-N-((R)-1-(4-(4-methylthiazol-5-yl)phenyl)ethyl)pyrrolidine-2-carboxamide] |  |  |
| > 30 | Cc1nccn1-c1ccc([C@@H](C)NC(=O)[C@H]2C[C@H](O)CN2C(=O)[C@@H](c2cc(N3CCN(CC4CCN(C[C@H]5C[C@H](Oc6cc(N7C8CCC7CN(c7cc(-c9ccccc9O)nnc7N)C8)ccn6)C5)CC4)CC3)no2)C(C)C)cc1 (racemic) [compound 447, rac-(2R,4S)-1-((2R)-2-(3-(4-((1-(((1r,3r)-3-((4-(3-(3-amino-6-(2-hydroxyphenyl)pyridazin-4-yl)-3,8-diazabicyclo[3.2.1]octan-8-yl)pyridin-2-yl)oxy)cyclobutyl)methyl)piperidin-4-yl)methyl)piperazin-1-yl)isoxazol-5-yl)-3-methylbutanoyl)-4-hydroxy-N-((R)-1-(4-(2-methyl-1H-imidazol-1-yl)phenyl)ethyl)pyrrolidine-2-carboxamide] |  |  |
|  | Cc1ncsc1-c1ccc([C@H](C)NC(=O)[C@@H]2C[C@@H](O)CN2C(=O)[C@H](c2cc(OCC[C@@H]3CCN(C[C@H]4C[C@H](Oc5cc(N6C7CCC6CN(c6cc(-c8ccccc8O)nnc6N)C7)ccn5)C4)C[C@@H]3C)no2)C(C)C)cc1 (racemic) [compound 543, (2S,4R)-1-((2S)-2-(3-(2-((3R,4S)-1-(((1r,3R)-3-((4-(3-(3-amino-6-(2-hydroxyphenyl)pyridazin-4-yl)-3,8-diazabicyclo[3.2.1]octan-8-yl)pyridin-2-yl)oxy)cyclobutyl)methyl)-3-methylpiperidin-4-yl)ethoxy)isoxazol-5-yl)-3-methylbutanoyl)-4-hydroxy-N-((S)-1-(4-(4-methylthiazol-5-yl)phenyl)ethyl)pyrrolidine-2-carboxamide] | > 30 |  |
|  | Cc1ncsc1-c1ccc([C@H](C)NC(=O)[C@@H]2C[C@@H](O)CN2C(=O)[C@@H](c2cc(OCC[C@@H]3CCN(C[C@H]4C[C@H](Oc5cc(N6C7CCC6CN(c6cc(-c8ccccc8O)nnc6N)C7)ccn5)C4)C[C@@H]3C)no2)C(C)C)cc1 (racemic) [compound 544, (2S,4R)-1-((2R)-2-(3-(2-((3R,4S)-1-(((1r,3R)-3-((4-(3-(3-amino-6-(2-hydroxyphenyl)pyridazin-4-yl)-3,8-diazabicyclo[3.2.1]octan-8-yl)pyridin-2-yl)oxy)cyclobutyl)methyl)-3-methylpiperidin-4-yl)ethoxy)isoxazol-5-yl)-3-methylbutanoyl)-4-hydroxy-N-((S)-1-(4-(4-methylthiazol-5-yl)phenyl)ethyl)pyrrolidine-2-carboxamide] | < 2.5 | > 75 |
|  | Cc1ncsc1-c1ccc([C@H](C)NC(=O)[C@@H]2C[C@@H](O)CN2C(=O)[C@H](c2cc(OCC[C@@H]3CCN(C[C@H]4C[C@H](Oc5cc(N6C7CCC6CN(c6cc(-c8ccccc8O)nnc6N)C7)ccn5)C4)C[C@H]3C)no2)C(C)C)cc1 (racemic) [compound 545, (2S,4R)-1-((2S)-2-(3-(2-((3S,4S)-1-(((1r,3S)-3-((4-(3-(3-amino-6-(2-hydroxyphenyl)pyridazin-4-yl)-3,8-diazabicyclo[3.2.1]octan-8-yl)pyridin-2-yl)oxy)cyclobutyl)methyl)-3-methylpiperidin-4-yl)ethoxy)isoxazol-5-yl)-3-methylbutanoyl)-4-hydroxy-N-((S)-1-(4-(4-methylthiazol-5-yl)phenyl)ethyl)pyrrolidine-2-carboxamide] | 2.5 to 10 | > 75 |
|  | Cc1ncsc1-c1ccc([C@H](C)NC(=O)[C@@H]2C[C@@H](O)CN2C(=O)[C@@H](c2cc(OCC[C@@H]3CCN(C[C@H]4C[C@H](Oc5cc(N6C7CCC6CN(c6cc(-c8ccccc8O)nnc6N)C7)ccn5)C4)C[C@H]3C)no2)C(C)C)cc1 (racemic) [compound 546, (2S,4R)-1-((2R)-2-(3-(2-((3S,4S)-1-(((1r,3S)-3-((4-(3-(3-amino-6-(2-hydroxyphenyl)pyridazin-4-yl)-3,8-diazabicyclo[3.2.1]octan-8-yl)pyridin-2-yl)oxy)cyclobutyl)methyl)-3-methylpiperidin-4-yl)ethoxy)isoxazol-5-yl)-3-methylbutanoyl)-4-hydroxy-N-((S)-1-(4-(4-methylthiazol-5-yl)phenyl)ethyl)pyrrolidine-2-carboxamide] | < 2.5 | > 75 |
|  | Cc1ncsc1-c1ccc([C@H](C)NC(=O)[C@@H]2C[C@@H](O)CN2C(=O)[C@H](c2cc(OCC[C@H]3CCN(C[C@H]4C[C@H](Oc5cc(N6C7CCC6CN(c6cc(-c8ccccc8O)nnc6N)C7)ccn5)C4)[C@@H](C)C3)no2)C(C)C)cc1 (racemic) [compound 547, (2S,4R)-1-((2S)-2-(3-(2-((2S,4S)-1-(((1r,3S)-3-((4-(3-(3-amino-6-(2-hydroxyphenyl)pyridazin-4-yl)-3,8-diazabicyclo[3.2.1]octan-8-yl)pyridin-2-yl)oxy)cyclobutyl)methyl)-2-methylpiperidin-4-yl)ethoxy)isoxazol-5-yl)-3-methylbutanoyl)-4-hydroxy-N-((S)-1-(4-(4-methylthiazol-5-yl)phenyl)ethyl)pyrrolidine-2-carboxamide] | > 30 |  |
|  | Cc1ncsc1-c1ccc([C@H](C)NC(=O)[C@@H]2C[C@@H](O)CN2C(=O)[C@H](c2cc(OCC[C@H]3CCN(C[C@H]4C[C@H](Oc5cc(N6C7CCC6CN(c6cc(-c8ccccc8O)nnc6N)C7)ccn5)C4)C[C@H]3C)no2)C(C)C)cc1 (racemic) [compound 565, (2S,4R)-1-((2S)-2-(3-(2-((3S,4R)-1-(((1r,3S)-3-((4-(3-(3-amino-6-(2-hydroxyphenyl)pyridazin-4-yl)-3,8-diazabicyclo[3.2.1]octan-8-yl)pyridin-2-yl)oxy)cyclobutyl)methyl)-3-methylpiperidin-4-yl)ethoxy)isoxazol-5-yl)-3-methylbutanoyl)-4-hydroxy-N-((S)-1-(4-(4-methylthiazol-5-yl)phenyl)ethyl) pyrrolidine-2-carboxamide] | > 30 |  |
|  | Cc1ncsc1-c1ccc([C@H](C)NC(=O)[C@@H]2C[C@@H](O)CN2C(=O)[C@@H](c2cc(OCC[C@H]3CCN(C[C@H]4C[C@H](Oc5cc(N6C7CCC6CN(c6cc(-c8ccccc8O)nnc6N)C7)ccn5)C4)C[C@H]3C)no2)C(C)C)cc1 (racemic) [compound 566, (2S,4R)-1-((2R)-2-(3-(2-((3S,4R)-1-(((1r,3S)-3-((4-(3-(3-amino-6-(2-hydroxyphenyl)pyridazin-4-yl)-3,8-diazabicyclo[3.2.1]octan-8-yl)pyridin-2-yl)oxy)cyclobutyl)methyl)-3-methylpiperidin-4-yl)ethoxy)isoxazol-5-yl)-3-methylbutanoyl)-4-hydroxy-N-((S)-1-(4-(4-methylthiazol-5-yl)phenyl)ethyl) pyrrolidine-2-carboxamide] | < 2.5 | > 75 |
|  | Cc1ncsc1-c1ccc([C@H](C)NC(=O)[C@@H]2C[C@@H](O)CN2C(=O)[C@@H](c2cc(OCCN3CC[C@@H](OCCc4cc(N5C6CCC5CN(c5cc(-c7ccccc7O)nnc5N)C6)ccn4)C[C@@H]3C)no2)C(C)C)cc1 (racemic) [compound 567, (2S,4R)-1-((2R)-2-(3-(2-((2S,4R)-4-(2-(4-(3-(3-amino-6-(2-hydroxyphenyl)pyridazin-4-yl)-3,8-diazabicyclo[3.2.1]octan-8-yl)pyridin-2-yl)ethoxy)-2-methylpiperidin-1-yl)ethoxy)isoxazol-5-yl)-3-methylbutanoyl)-4-hydroxy-N-((S)-1-(4-(4-methylthiazol-5-yl)phenyl)ethyl) pyrrolidine-2-carboxamide] | 2.5 to 10 | > 75 |
|  | Cc1ncsc1-c1ccc([C@H](C)NC(=O)[C@@H]2C[C@@H](O)CN2C(=O)[C@@H](c2cc(OCCN3CC[C@H](OCCc4cc(N5C6CCC5CN(c5cc(-c7ccccc7O)nnc5N)C6)ccn4)C[C@@H]3C)no2)C(C)C)cc1 (racemic) [compound 568, (2S,4R)-1-((2R)-2-(3-(2-((2S,4S)-4-(2-(4-(3-(3-amino-6-(2-hydroxyphenyl)pyridazin-4-yl)-3,8-diazabicyclo[3.2.1]octan-8-yl)pyridin-2-yl)ethoxy)-2-methylpiperidin-1-yl)ethoxy)isoxazol-5-yl)-3-methylbutanoyl)-4-hydroxy-N-((S)-1-(4-(4-methylthiazol-5-yl)phenyl)ethyl)pyrrolidine-2-carboxamide] | < 2.5 | > 75 |
